From ChEMBL document CHEMBL5113373, “Tryptophan derived natural marine alkaloids and synthetic derivatives as promising antimicrobial agents” (Eur J Med Chem, 2021)
Values after ≈ are worked out from the molar mass of the structure shown. Each block holds one compound with its values, some of them ahead of it.

Columns and labels:
[1] = tested on: Aspergillus niger; experiment: Antifungal activity against Aspergillus niger assessed as fungal growth inhibition; assay type: functional, organism-based
[2] = tested on: Candida albicans; experiment: Antifungal activity against Candida albicans assessed as fungal growth inhibition; assay type: functional, organism-based
[3] = tested on: Acinetobacter baumannii; experiment: Antibacterial activity against Acinetobacter baumannii ATCC 19606 assessed as bacterial growth inhibition incubated for 24 hrs by broth micro dilution method; assay type: functional
[4] = tested on: Corynebacterium xerosis; experiment: Antimicrobial activity against Corynebacterium xerosis assessed as microbial growth inhibition; assay type: functional
[5] = tested on: Micrococcus luteus; experiment: Antimicrobial activity against Sarcina lutea assessed as microbial growth inhibition; assay type: functional
[6] = tested on: Trichophyton mentagrophytes; experiment: Antifungal activity against Trichophyton mentagrophytes assessed as fungal growth inhibition; assay type: functional, organism-based
[7] = tested on: Cryptococcus neoformans; experiment: Antifungal activity against Cryptococcus neoformans assessed as fungal growth inhibition; assay type: functional, organism-based
[8] = tested on: Staphylococcus aureus; experiment: Antimicrobial activity against methicillin-resistant Staphylococcus aureus assessed as microbial growth inhibition by broth microdilution method; assay type: functional
[9] = tested on: Candida albicans; experiment: Antimicrobial activity against Candida albicans assessed as microbial growth inhibition by microdilution method; assay type: functional
[10] = tested on: Escherichia coli; experiment: Antimicrobial activity against Escherichia coli assessed as microbial growth inhibition by microdilution method; assay type: functional
[11] = tested on: Staphylococcus aureus; experiment: Antibacterial activity against Staphylococcus aureus ATCC 6538 assessed as bacterial growth inhibition incubated for 24 hrs by agar diffusion method; assay type: functional
[12] = tested on: Candida albicans; experiment: Antifungal activity against Candida albicans ATCC 2091 assessed as fungal growth inhibition incubated for 24 hrs by agar diffusion method; assay type: functional
[13] = tested on: Pseudomonas aeruginosa; experiment: Antibacterial activity against Pseudomonas aeruginosa ATCC 9027 assessed as bacterial growth inhibition incubated for 24 hrs by agar diffusion method; assay type: functional
[14] = tested on: Pseudomonas aeruginosa; experiment: Antibiofilm activity against Pseudomonas aeruginosa assessed as inhibition of biofilm formation incubated for 24 hrs by crystal violet method; assay type: functional, organism-based
[15] = tested on: Escherichia coli; experiment: Antibiofilm activity against Escherichia coli K12 ER2718 assessed as inhibition of biofilm formation incubated for 24 hrs by crystal violet method; assay type: functional, organism-based; conditions: K12 ER2718, 24 h
[16] = tested on: Staphylococcus aureus; experiment: Antibiofilm activity against Staphylococcus aureus ATCC 29213 assessed as inhibition of biofilm formation incubated for 24 hrs by crystal violet method; assay type: functional, organism-based; conditions: ATCC 29213, 24 h
[17] = tested on: Staphylococcus aureus; experiment: Antibiofilm activity against Staphylococcus aureus ATCC 25923 assessed as inhibition of biofilm formation incubated for 24 hrs by crystal violet method; assay type: functional, organism-based; conditions: ATCC 25923, 24 h
[18] = tested on: Staphylococcus aureus; experiment: Antibiofilm activity against Staphylococcus aureus ATCC 6538 assessed as inhibition of biofilm formation incubated for 24 hrs by crystal violet method; assay type: functional, organism-based; conditions: ATCC 6538, 24 h
[19] = tested on: Escherichia coli; experiment: Antibacterial activity against Escherichia coli assessed as bacterial growth inhibition; assay type: functional
[20] = tested on: Bacillus subtilis; experiment: Antibacterial activity against Bacillus subtilis assessed as bacterial growth inhibition; assay type: functional, organism-based
[21] = Inhibition of Methicillin-resistant Staphylococcus aureus pyruvate kinase assessed as measuring absorbance of NADH coupled to L-LDH using phospho enol pyruvate in presence of ADP by spectrophotometry
[22] = tested on: Vibrio natriegens; experiment: Antimicrobial activity against Vibrio natriegens ATCC 14048 assessed as microbial growth inhibition incubated for 48 hrs by spectrophotometry; assay type: functional

- MIC [1]: 26.8 µM
SMILES: Cn1cnc(C(=O)c2nc3c4c5c(nccc5c(C(C[N+](C)(C)C)c5c[nH]c6cc(Br)ccc56)c3o2)C=CN4)c1 (stereo not drawn)

SMILES: Brc1ccc2c(-c3c[nH]c(-c4c[nH]c5cc(Br)ccc45)n3)c[nH]c2c1 [NORTOPSENTIN A]
- IC50 [2]: 6.8 µM

- MIC [3]: 14.9 µM (≈ 6.26 µg/mL)
SMILES: C[C@@H]1N[C@H]2N(C1=O)c1ccccc1[C@@]2(O)C[C@H](C(=O)O)n1cnc2ccccc2c1=O

- MIC [4]: 36.9 µM (≈ 16 µg/mL)
- MIC [5]: 36.9 µM (≈ 16 µg/mL)
SMILES: O=C1N=C(C(=O)c2c[nH]c3ccc(Br)cc23)N/C1=C\c1c[nH]c2ccccc12

SMILES: Cn1cc(C(=O)c2nc(C(=O)O)cc3c2[nH]c2ccc(O)cc23)[n+](C)c1
- IC50 [6]: 45.7 µM
- IC50 [7]: 11.4 µM
- IC50 [1]: 22.8 µM
- IC50 [2]: 45.7 µM

SMILES: O=C1CN=C(c2c[nH]c3ccc(O)cc23)c2c(O)ccc3[nH]cc1c23
- IC50 [6]: 48.3 µM

SMILES: O=C1Nc2ccccc2[C@@]1(O)Cc1cncc(Cc2c[nH]c3ccccc23)n1
- MIC [8]: 32.4 µM (≈ 12 µg/mL)
- MIC [9]: 32.4 µM
- MIC [10]: 27 µM

SMILES: COc1ccc2[nH]c3cnc(-c4c[nH]c5cc(O)ccc45)c(C(=O)O)c3c2c1
- diameter of the inhibition zone (DIZ) [11]: 10 mm
- diameter of the inhibition zone (DIZ) [12]: 9 mm
- diameter of the inhibition zone (DIZ) [13]: 7 mm

SMILES: Oc1ccc2nc3oc4ccc5[nH]cc6cc[nH]c(c-3c2c1)c4c65
- IC50 [6]: 51.1 µM
- IC50 [7]: 6.4 µM
- IC50 [1]: 12.8 µM
- IC50 [2]: 3.2 µM

- MIC [6]: 31.5 µM
SMILES: CSc1c(-c2c(-c3c[nH]c4ccc(O)cc34)c(=O)n3c4ccc(O)cc4c4ccnc2c43)[n+](C)cn1C
- IC50 [7]: 7.9 µM
- IC50 [2]: 7.9 µM

- IC50 [14]: 9.9 µM
SMILES: Cn1cc(-c2csc(-c3cn(CCN)c4ccc(F)cc34)n2)c2ccccc21

SMILES: C=CC(C)(C)c1[nH]c2cc(Br)ccc2c1CCNC [DESFORMYLFLUSTRABROMINE]
- IC50 [15]: 174 µM
- IC50 [16]: 70 µM

SMILES: CSc1c(-c2c(-c3c[nH]c4ccc(O)cc34)c(=O)n3c4ccc(O)cc4c4cc(C(=O)O)nc2c43)[n+](C)cn1C
- IC50 [7]: 14.5 µM
- IC50 [2]: 14.5 µM

SMILES: CC(=O)[C@H]1N=C(c2c[nH]c3ccc(O)cc23)c2c(O)ccc3[nH]cc(c23)[C@H]1O
- IC50 [1]: 85.2 µM

SMILES: C[N+](C)(C)CC(c1c[nH]c2ccccc12)c1c(O)c(O)c2c3c(nccc13)C=CN2 (stereo not drawn)
- IC50 [2]: 19.9 µM

- IC50 [17]: 0.4 µM
SMILES: COCCn1cc(-c2nc(-c3cn(C)c4ccccc34)cs2)c2cc(F)ccc21

- IC50 [18]: 0.7 µM
SMILES: COCCn1cc(-c2nc(-c3c[nH]c4ccccc34)cs2)c2cc(F)ccc21

SMILES: O=C1NC(C(=O)c2c[nH]c3ccc(O)cc23)c2c(O)ccc3[nH]cc(c23)C1=O (stereo not drawn)
- IC50 [6]: 42.6 µM
- IC50 [1]: 21.3 µM

SMILES: Cc1cncc(Cc2c[nH]c3ccccc23)n1
- MIC [8]: 53.7 µM (≈ 12 µg/mL)
- MIC [9]: 62.7 µM
- MIC [10]: 35.8 µM

- MIC [19]: 41.1 µM (≈ 16 µg/mL)
- MIC [20]: 41.1 µM (≈ 16 µg/mL)
SMILES: CO[C@@H]1c2c[nH]c3ccc(O)c(c23)C(c2c[nH]c3ccc(O)cc23)=N[C@@H]1C(C)=O

SMILES: O=C(C1=N[C@@H](c2c[nH]c3cc(Br)ccc23)CN1)c1c[nH]c2ccccc12
- MIC [8]: 15.4 µM (≈ 6.27 µg/mL)

SMILES: O=C1NC[C@@H](c2c[nH]c3cc(Br)ccc23)N[C@H]1c1c[nH]c2cc(Br)ccc12 (relative stereo) [CIS-3,4-DIHYDROHAMACANTHIN B]
- MIC [8]: 0.016 µM (≈ 0.00781 µg/mL)
- IC50 [21]: 5.1 µM

- MIC [22]: 2.4 µM (≈ 0.994 µg/mL)
SMILES: C/N=C1\NC(Cc2c[nH]c3cc(Br)c(Br)cc23)C(=O)N1C (stereo not drawn)
